We go through 24 compounds from US8664236B2, “1H-pyrrolo[2,3 b]-pyridine derivatives” (Merck Patent GmbH, priority 2010, dated 2014).

One assay deals with PDK1 (His6-PDK1(Δ1-50)) (Homo sapiens (Human), UniProt O15530). The assay is described as follows: Test for the inhibition of PDK1 (enzymatic, flashplate, 33P-ATP). The class given is biochemical. Here is the method: 4. Test for the Inhibition of PDK1
The experimental batches are carried out in a flashplate system with 384 wells/microtitration plate.
The test substances are employed in corresponding concentrations (if desired in a dilution series). The control is carried out without test substance. The reaction is stopped using standard methods and washed. The activity of the kinase is measured via the incorporated radioactivity in top count. In order to determine the non-specific kinase reaction (blank value), the experimental batches are carried out in the presence of 100 nM staurosporine.
The radioactivity (decompositions per minute) of the blank value (no use of test substance in the presence of staurosporine) is subtracted from all other radioactivity values. The controls (kinase activity without test substance) are set equal to 100 percent and all other radioactivity values (after subtracting the blank value) are expressed set in relation thereto (for example in % of the control).

For assay [1], the target named is PDK1 kinase in PC3 cells (PKB phosphorylation at Thr 308) (Homo sapiens (Human), UniProt O15530). The assay is described as follows: Cellular testing of PDK1 kinase inhibitors in PC3 cells (Luminex, phospho-T308-PKB). The class given is cell-based. On the procedure:
Method for the Cellular Testing of PDK1 Kinase Inhibitors in PC3 Cells
The cellular assay for the determination of the PDK1 kinase activity is carried out as a Luminex assay in the 96-well format. PC3 cells are sown at 20,000 cells per well in 100 μl of medium (45% of […]/45% of Ham's F12/10% of FCS) and incubated on the following day for 30 min with a serial dilution of the test substance (7 concentrations) under serum-free conditions. The cells are subsequently lysed using 90 μl of lysis buffer (20 mM tris/HCl pH 8.0, 150 mM NaCl, 1% of NP40, 10% of glycerol, 1% of phosphatase inhibitor I, 1% of phosphatase inhibitor II, 0.1% of protease inhibitor cocktail III, 0.01% of benzonase) per well, and the lysates are separated off from insoluble cell constituents by means of centrifugation through a 96-well filter plate (0.65 μm). The lysates are incubated overnight at 4° C. with shaking with Luminex beads to which an anti-total PKB antibody is coupled. The detection is carried out on the following day by addition of a phospho-T308-PKB antibody and a species-specific […] secondary antibody. The detection of phospho-T308-PKB is carried out by measurement in a Luminex100 instrument by determination of 100 events per cavity in a measurement time of 60 sec. […] The values of the batches treated with test substance are calculated therefrom as percentage of control, and IC50 values are determined by means of RS1.

[2] abbreviates: Table I comparison, read-out: PDK1 inhibition assay enzymatic IC50.
Setting [3] is: enzymatic PDK1 inhibition assay, read-out: enzymatic IC50.
The mark [4] stands for this setting: PKB phosphorylation at Thr 308 in PC3 cells, read-out: cellular IC50.
[5] abbreviates: Table I comparison, values given in μM, read-out: PDK1 inhibition assay cellular IC50.

Each structure is given as a SMILES string. Read-outs that look alike come from different tables or passages of the source.

Sequence of PDK1 kinase in PC3 cells (PKB phosphorylation at Thr 308) (O15530 whole entry): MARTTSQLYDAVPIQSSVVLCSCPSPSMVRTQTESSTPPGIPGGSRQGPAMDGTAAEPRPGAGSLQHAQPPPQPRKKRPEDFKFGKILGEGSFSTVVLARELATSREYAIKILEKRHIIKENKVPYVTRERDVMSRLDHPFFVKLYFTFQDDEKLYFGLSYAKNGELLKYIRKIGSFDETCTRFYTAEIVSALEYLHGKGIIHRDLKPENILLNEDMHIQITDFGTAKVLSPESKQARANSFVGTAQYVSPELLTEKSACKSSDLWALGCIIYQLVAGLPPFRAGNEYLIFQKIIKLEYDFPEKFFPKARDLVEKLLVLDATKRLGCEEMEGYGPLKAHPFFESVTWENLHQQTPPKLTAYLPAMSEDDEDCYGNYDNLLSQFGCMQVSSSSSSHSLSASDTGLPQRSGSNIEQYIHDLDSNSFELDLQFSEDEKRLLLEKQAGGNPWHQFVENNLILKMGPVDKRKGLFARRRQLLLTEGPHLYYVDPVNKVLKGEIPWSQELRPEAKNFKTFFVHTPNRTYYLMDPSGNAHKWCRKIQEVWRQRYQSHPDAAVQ
Sequence of PDK1 (His6-PDK1(Δ1-50)) (O15530 51-556): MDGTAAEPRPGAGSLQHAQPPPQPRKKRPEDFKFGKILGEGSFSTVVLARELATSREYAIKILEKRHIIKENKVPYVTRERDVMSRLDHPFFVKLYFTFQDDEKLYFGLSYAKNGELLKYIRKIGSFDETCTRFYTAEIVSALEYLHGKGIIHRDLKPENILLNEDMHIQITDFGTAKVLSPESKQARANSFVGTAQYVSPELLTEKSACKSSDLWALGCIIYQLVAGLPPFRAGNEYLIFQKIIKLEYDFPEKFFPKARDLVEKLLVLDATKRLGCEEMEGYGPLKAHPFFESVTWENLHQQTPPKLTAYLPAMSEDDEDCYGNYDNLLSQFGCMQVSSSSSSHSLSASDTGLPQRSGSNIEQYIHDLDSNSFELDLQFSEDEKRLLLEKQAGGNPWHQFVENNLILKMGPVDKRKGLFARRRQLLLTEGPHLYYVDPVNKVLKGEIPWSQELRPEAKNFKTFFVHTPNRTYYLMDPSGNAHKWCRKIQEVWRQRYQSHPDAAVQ

Turning to `CC(=O)NCCCN(c1ccccc1)c1cc(-c2c[nH]c3ncc(-c4cnn(C)c4)cc23)nc(N)n1` [A43, N-[3-({2-Amino-6-[5-(1-methyl-1H-pyrazol-4-yl)-1H-pyrrolo-[2,3-b]pyridin-3-yl]pyrimidin-4-yl}phenylamino)propyl]acetamide], the IC50 amounted to 22 nM on PDK1 (His6-PDK1(Δ1-50)) (setting [2]); 22 nM at PDK1 (His6-PDK1(Δ1-50)) (setting [3]); 430 nM in assay [1] (setting [4]); 430 nM in assay [1] (Table I comparison, values in nM, read-out: PDK1 inhibition assay cellular IC50).

Consider `CC(C)n1cc(-c2cnc3[nH]cc(-c4cc(N(CCO)c5ccccc5Cl)nc(N)n4)c3c2)cn1` [A15, 2-[{2-Amino-6-[5-(1-isopropyl-1H-pyrazol-4-yl)-1H-pyrrolo[2,3-b]pyridin-3-yl]pyrimidin-4-yl)-(2-chlorophenyl)amino]-ethanol], for which, in assay [1] (setting [4]), the IC50 amounted to 2100 nM.

Take `Cn1cc(-c2cnc3[nH]cc(-c4cc(N(CC(O)CO)c5cccc(C#N)c5)nc(N)n4)c3c2)cn1` (stereo not shown) [A22, 3-[{2-Amino-6-[5-(1-methyl-1H-pyrazol-4-yl)-1H-pyrrolo[2,3-b]-pyridin-3-yl]pyrimidin-4-yl}-(2,3-dihydroxypropyl)amino]-benzonitrile]: the IC50 was 90 nM at PDK1 (His6-PDK1(Δ1-50)) (setting [3]) and above 10000 nM in assay [1] (setting [4]).

For the compound `Cn1cc(-c2cnc3[nH]cc(-c4cc(N(CCC(=O)O)c5ccccc5Cl)nc(N)n4)c3c2)cn1` [A23, 3-[{2-Amino-6-[5-(1-methyl-1H-pyrazol-4-yl)-1H-pyrrolo[2,3-b]-pyridin-3-yl]pyrimidin-4-yl)-(2-chlorophenyl)amino]propionic acid], the IC50 was 4.8 nM on PDK1 (His6-PDK1(Δ1-50)) (setting [3]) and above 10000 nM in assay [1] (setting [4]).

For the compound `COC(=O)CN(c1ccc(Cl)cc1)c1cc(-c2c[nH]c3ncc(-c4cnn(C)c4)cc23)nc(N)n1` [A24, Methyl [{2-amino-6-[5-(1-methyl-1H-pyrazol-4-yl)-1H-pyrrolo-[2,3-b]pyridin-3-yl]pyrimidin-4-yl)-(4-chlorophenyl)amino]acetate], the values for the IC50 (at PDK1 (His6-PDK1(Δ1-50)) (setting [3]); in assay [1] (setting [4])) were 69 nM and 470 nM, respectively.

In the case of `CN(c1cccc(F)c1)c1cc(-c2c[nH]c3ncc(-c4cnn(C)c4)cc23)nc(N)n1` [A1, N4-(3-Fluorophenyl)-N4-methyl-6-[5-(1-methyl-1H-pyrazol-4-yl)-1H-pyrrolo[2,3-b]pyridin-3-yl]pyrimidine-2,4-diamine], the IC50 on PDK1 (His6-PDK1(Δ1-50)) (setting [3]) is 34 nM; in assay [1] (setting [4]) it was 280 nM.

Turning to `CC(C)Cn1cc(-c2cnc3[nH]cc(-c4cc(CCCN)nc(N)n4)c3c2)cn1` [reference compound], the values for the IC50 (at PDK1 (His6-PDK1(Δ1-50)) (setting [2]); in assay [1] (setting [5])) were 11 nM and above 30000 nM, respectively.

As for `CN(c1cc(-c2c[nH]c3ncc(-c4cnn(C)c4)cc23)nc(N)n1)c1ccccc1F` [A9, N4-(2-Fluorophenyl)-N4-methyl-6-[5-(1-methyl-1H-pyrazol-4-yl)-1H-pyrrolo[2,3-b]pyridin-3-yl]pyrimidine-2,4-diamine], the IC50 at PDK1 (His6-PDK1(Δ1-50)) (setting [3]) stood at 9.7 nM; in assay [1] (setting [4]) it was 27 nM.

Consider `Cn1cc(-c2cnc3[nH]cc(-c4cc(N(CCN5CCOCC5)c5cccc(F)c5)nc(N)n4)c3c2)cn1` [A28, N4-(3-Fluorophenyl)-6-[5-(1-methyl-1H-pyrazol-4-yl)-1H-pyrrolo[2,3-b]pyridin-3-yl]-N4-(2-morpholin-4-ylethyl)pyrimidine-2,4-diamine], for which the figures for the IC50 (at PDK1 (His6-PDK1(Δ1-50)) (setting [3]); in assay [1] (setting [4])) were 89 nM and 9700 nM, respectively.

In the case of `COCCN(c1cc(-c2c[nH]c3ncc(-c4cnn(C)c4)cc23)nc(N)n1)c1ccccc1Cl` [A29, N4-(2-Chlorophenyl)-N4-(2-methoxyethyl)-6-[5-(1-methyl-1H-pyrazol-4-yl)-1H-pyrrolo[2,3-b]pyridin-3-yl]pyrimidine-2,4-diamine], the results for the IC50 (on PDK1 (His6-PDK1(Δ1-50)) (setting [3]); in assay [1] (setting [4])) were 7 nM and 25.5 nM, respectively.

`Cn1cc(-c2cnc3[nH]cc(-c4cc(C5(c6ccc(Cl)cc6)CCCC5)nc(N)n4)c3c2)cn1` [A7, 4-[1-(4-Chlorophenyl)cyclopentyl]-6-[5-(1-methyl-1H-pyrazol-4-yl)-1H-pyrrolo[2,3-b]pyridin-3-yl]pyrimidin-2-ylamine]: the IC50 on PDK1 (His6-PDK1(Δ1-50)) (setting [3]) is 870 nM; in assay [1] (setting [4]), 1400 nM.

With `CN(c1cccc(F)c1)c1cc(-c2c[nH]c3ncc(-c4cnn(C)c4)cc23)ncn1` [A30a], the IC50 in assay [1] (setting [4]) is 660 nM.

On to `CN(c1cccc(Cl)c1)c1cc(-c2c[nH]c3ncc(-c4cnn(C)c4)cc23)nc(N)n1` [A8, N4-(3-Chlorophenyl)-N4-methyl-6-[5-(1-methyl-1H-pyrazol-4-yl)-1H-pyrrolo[2,3-b]pyridin-3-yl]pyrimidine-2,4-diamine], for which the IC50 on PDK1 (His6-PDK1(Δ1-50)) (setting [3]) was found to be 51 nM; in assay [1] (setting [4]) it was 200 nM.

For `Cn1cc(-c2cnc3[nH]cc(-c4cc(C(C)(C)c5ccccc5)nc(N)n4)c3c2)cn1` [A2, 4-(1-Methyl-1-phenylethyl)-6-[5-(1-methyl-1H-pyrazol-4-yl)-1H-pyrrolo[2,3-b]pyridin-3-yl]pyrimidin-2-ylamine], the IC50 at PDK1 (His6-PDK1(Δ1-50)) (setting [3]) amounted to 65 nM; in assay [1] (setting [4]) it was 140 nM.

Take `CCN(c1ccccc1)c1cc(-c2c[nH]c3ncc(-c4cnn(C)c4)cc23)nc(N)n1` [A12, N4-Ethyl-6-[5-(1-methyl-1H-pyrazol-4-yl)-1H-pyrrolo[2,3-b]-pyridin-3-yl]-N4-phenylpyrimidine-2,4-diamine]: the IC50 at PDK1 (His6-PDK1(Δ1-50)) (setting [3]) turned out to be 12 nM; in assay [1] (setting [4]) it was 690 nM.

On to `CC(C)n1cc(-c2cnc3[nH]cc(-c4cc(N5CCc6cc(F)ccc65)nc(N)n4)c3c2)cn1` [A18, 4-(5-Fluoro-2,3-dihydroindol-1-yl)-6-[5-(1-isopropyl-1H-pyrazol-4-yl)-1H-pyrrolo[2,3-b]pyridin-3-yl]pyrimidin-2-ylamine], for which the IC50 was 5900 nM at PDK1 (His6-PDK1(Δ1-50)) (setting [3]) and above 10000 nM in assay [1] (setting [4]).

Compound `Cn1cc(-c2cnc3[nH]cc(-c4cc(N(CCC#N)c5ccccc5Cl)nc(N)n4)c3c2)cn1` [A30, 3-[{2-amino-6-[5-(1-methyl-1H-pyrazol-4-yl)-1H-pyrrolo[2,3-b]-pyridin-3-yl]pyrimidin-4-yl}-(2-chlorophenyl)amino]propionitrile] gave an IC50 on PDK1 (His6-PDK1(Δ1-50)) of 9.1 nM.

As to `Cn1cc(-c2cnc3[nH]cc(-c4cc(N(CCCN)c5ccccc5)nc(N)n4)c3c2)cn1` [A31, N4-(3-Aminopropyl)-6-[5-(1-methyl-1H-pyrazol-4-yl)-1H-pyrrolo[2,3-b]pyridin-3-yl]-N4-phenylpyrimidine-2,4-diamine], the IC50 on PDK1 (His6-PDK1(Δ1-50)) (setting [2]) came to 8.7 nM; on PDK1 (His6-PDK1(Δ1-50)) (setting [3]), 8.7 nM; in assay [1] (setting [4]), 6800 nM; in assay [1] (setting [5]), 6800 nM.

With `CN(c1cc(-c2c[nH]c3ncc(-c4cnn(C)c4)cc23)nc(N)n1)c1ccccc1Cl` [A10, N4-(2-Chlorophenyl)-N4-methyl-6-[5-(1-methyl-1H-pyrazol-4-yl)-1H-pyrrolo[2,3-b]pyridin-3-yl]pyrimidine-2,4-diamine], the IC50 at PDK1 (His6-PDK1(Δ1-50)) (setting [3]) is 7.6 nM; in assay [1] (setting [4]), 26 nM.

With `Cn1cc(-c2cnc3[nH]cc(-c4cc(N5CCc6cc(F)ccc65)nc(N)n4)c3c2)cn1` [A17, 4-(5-Fluoro-2,3-dihydroindol-1-yl)-6-[5-(1-methyl-1H-pyrazol-4-yl)-1H-pyrrolo[2,3-b]pyridin-3-yl]pyrimidin-2-ylamine], the IC50 at PDK1 (His6-PDK1(Δ1-50)) (setting [3]) is 200 nM; in assay [1] (setting [4]) it was above 10000 nM.

Consider `CCN(Cc1ccccc1)c1cc(-c2c[nH]c3ncc(-c4cnn(C)c4)cc23)nc(N)n1` [A14, N4-Benzyl-N4-ethyl-6-[5-(1-methyl-1H-pyrazol-4-yl)-1H-pyrrolo[2,3-b]pyridin-3-yl]pyrimidine-2,4-diamine], for which the IC50 is 51 nM at PDK1 (His6-PDK1(Δ1-50)) (setting [3]) and 530 nM in assay [1] (setting [4]).

With `Cn1cc(-c2cnc3[nH]cc(-c4cc(N(CCO)c5ccccc5F)nc(N)n4)c3c2)cn1` [A26, 2-[{2-Amino-6-[5-(1-methyl-1H-pyrazol-4-yl)-1H-pyrrolo[2,3-b]-pyridin-3-yl]pyrimidin-4-yl)-(2-fluorophenyl)amino]ethanol], the IC50 on PDK1 (His6-PDK1(Δ1-50)) (setting [3]) came to 5 nM; in assay [1] (setting [4]), 23 nM.

On to `Cn1cc(-c2cnc3[nH]cc(-c4cc(C5(c6ccccc6F)CC5)nc(N)n4)c3c2)cn1` [A42, 4-[1-(2-Fluorophenyl)cyclopropyl]-6-[5-(1-methyl-1H-pyrazol-4-yl)-1H-pyrrolo[2,3-b]pyridin-3-yl]pyrimidin-2-ylamine], for which the IC50 was determined as 45.5 nM at PDK1 (His6-PDK1(Δ1-50)) (setting [3]) and 20 nM in assay [1] (setting [4]).

As for `CN(c1ccccc1)c1cc(-c2c[nH]c3ncc(-c4cnn(C)c4)cc23)nc(N)n1` [A11, N4-Methyl-6-[5-(1-methyl-1H-pyrazol-4-yl)-1H-pyrrolo[2,3-b]-pyridin-3-yl]-N4-phenylpyrimidine-2,4-diamine], the IC50 on PDK1 (His6-PDK1(Δ1-50)) (setting [3]) amounted to 16.5 nM; in assay [1] (setting [4]) it was 800 nM.

By IC50 is commonly meant the point on the concentration scale where inhibition reaches its midpoint.
